“Also recorded” adds a separate entry of the source. Read-outs that look alike come from different tables or passages of the source. Values belong to the compound of their own block, whether it stands above or below them.
How the values were obtained:
[1] = Oral bioavailability by urinary excretion method (Example M); type: in vivo; conditions: oral gavage 20 or 40 mg/kg parent equivalents; 24 h urine vs i.v. parent ~10 mg/kg; rat
Procedure: (§1) The oral bioavailability of prodrugs of a variety of phosphonic acid FBPase inhibitors was estimated by a urinary excretion method in rat.
Prodrugs of FBPase inhibitors were dissolved in 10% ethanol/90% polyethylene glycol (mw 400) and administered by oral gavage at doses of 20 or 40 mg/kg parent compound equivalents to 6-hour fasted, Sprague Dawley rats (220-240 g). The rats were subsequently placed in metabolic cages and urine was collected for 24 hours. The quantity of parent compound excreted into urine was determined by HPLC analysis. An ODS column eluted with a gradient from potassium phosphate buffer, pH 5.5 to acetonitrile was employed for these measurements. Detection was at 310-325 nm. […] Parent compounds were typically dissolved in dimethyl sulfoxide, and administered via the tail vein in animals that were briefly anesthetized with halothane.
Results for the FBPase inhibitor prodrugs were as follows

[2] = Activation by rat liver microsomes (Example D); conditions: 100 μM; 0-2.5 mg/ml microsomal protein; 37° C.; with/without NADP+
Procedure: Methods: The microsomal fraction was prepared from fresh, saline-perfused rat liver. Liver tissue was homogenized in three volumes (w/v) of 0.2 M KH2PO4 buffer pH 7.5, containing 2 mM MgCl2 and 1 mM EGTA. The homogenate was centrifuged at 10,000 g for 1 hour and the supernatant recovered. The supernatant fraction was then recentrifuged at 100,000 g to pellet the microsomal fraction. The pellet was resuspended in homogenization buffer and recentrifuged. This process was repeated twice to ensure complete removal of cytosolic enzyme activities. After the last centrifugation, the microsomal pellet was resuspended in homogenization buffer at a final protein concentration of about 14 mg/ml.
For 7.1, reaction mixtures (0.5 ml) consisted of 0.2 M KH2PO4 pH 7.5, 13 mM glucose-6-phosphate, 2.2 mM NADP^+, 1 unit of glucose-6-phosphate dehydrogenase, 0-2.5 mg/ml microsomal protein and 100 μM 7.1. Reactions were carried out at 37° C. Aliquots were removed from the reaction mixtures at appropriate time points, and extracted with 60% methanol.
Reactions are monitored spectrophotometrically at 340 nm. A decrease in absorbance is indicative of cofactor depletion and thus of the enzymatic oxidation of prodrug to parent compound.

[3] = Oral bioavailability from liver ara-ATP area under the curve (Example M); type: in vivo, rat; conditions: for oral bioavailability: hepatic ara-ATP AUC, fasted rats
Procedure: as §1
Methods: Fasted rats were dosed orally and intravenously with 30.1 at 3 and 10 mg/kg. Liver samples were obtained, processed, and analyzed for ara-ATP content as described in Example P.
[“Adenine Arabinoside: An Antiviral Agent” (1975) D. Pavan-Langston, Editor, Raven Press Publishers, New York].

[4] = system: normal C57 mice; conditions: for araATP, nmoles/g liver: day 22, 3 hours after final dosing
Procedure: Death and other obvious signs of toxicity such as weight loss, tremors, ruffling fur, hunching, prostration, diarrhea, lethargy, and hyperactivity were monitored. On day 22, 3 hours following the final dosing, mice were sacrificed and livers were removed and homogenized in 3 volumes (to liver weight) of 10% perchloric acid.

[5] = Tissue distribution: activation in tissue homogenates (Example T); type: in vitro ADME, rat; conditions: 100 μM; liver cytosol without microsomes
Procedure: 30.1 is tested for activation in homogenates from various tissues to assess the specificity of liver activation.
Methods: Rats are anaesthetized under halothane and tissues including liver, kidney, brain, heart, stomach, spleen, muscle, lung, and testis are excised and frozen in liquid nitrogen. Tissues are then homogenized in 1 to 3 volumes of 50 mM Tris/HCl, 154 mM KCl, 1 mM EGTA pH 7.4. The homogenate is centrifuged at 10,000 rpm and 4° C. for 30 minutes and the supernatant recovered. Liver cytosol is prepared by centrifuging the liver crude extract for 1 hour at 40,000 rpm and 4° C. Reaction mixtures consist of 50 mM KH2PO4 pH 7.4, 13 mM glucose-6-phosphate, 2 mM NADP^+, 10 units of glucose-6-phosphate dehydrogenase, 100 μM 30.1 and tissue homogenate at a protein concentration of 8.5 mg/ml. Reactions are incubated at 37° C. Aliquots are taken after 0 and 1 hour of incubation, and extracted with 60% methanol. The methanolic extracts are centrifuged at 14,000 rpm, and filtered prior to analysis by HPLC. The samples are loaded onto a YMC C8 column equilibrated with 0.1% TFA and eluted with a methanol gradient to 80%. Ihe activation of 30.1 to ara-AMP is monitored at […]
Results. […] Results of this nature indicate liver specific activation of 30.1.

[6] = Stability in plasma (Example C)
Procedure: Methods: Compounds were incubated in plasma at 37° C., and aliqouts removed at appropriate time points over the course of 5-8 hours. The aliquots were extracted with 1.5 volumes of methanol and clarified by centrifugation. Supernatants were then evaporated to dryness and the residues reconstituted with 100 μL of isoionic saline and then analyzed by reverse phase HPLC.

[7] = Liver ara-ATP and ara-hypoxanthine generation after intravenous administration (Example O); type: in vivo, rat; conditions: for liver ara-ATP area under the curve relative to 10 mg/kg equivalent dose of ara-AMP: over 8 hours; for ara-hypoxanthine (araH) in plasma / blood: 30.1 10 and 3 mg/kg, ara-AMP 10 mg/kg; for dose excreted in the form of ara-hypoxanthine in urine: ara-AMP 10 mg/kg equivalent dose
Procedure: The temporal profile of ara-hypoxanthine and ara-ATP generation following intravenous administration of 30.1 and free ara-AMP was compared in the rat. Method: 30.1 and ara-AMP (Sigma) were administered to normal, fasted rats intravenously (in saline) via tail vein catheters. At appropriate time points following drug a administration, animals were lightly anesthetized with halothane. The peritoneal cavity was then opened and a blood sample was obtained from the abdominal vena cava and the liver freeze-clamped and excised. The blood samples were heparinized and plasma was prepared. Plasma samples (100 μL) were mixed with 4 N perchloric acid (40 μL), vortexed, and then clarified by centrifugation. […] The eluent was monitored by UV absorbance at 254 nm. Livers were immediately homogenized in 3 volumes of 10% perchloric acid (w/w), and the extracts clarified by centrifugation at 2500×g (5 minutes). The resulting supernatants were removed and neutralized with 0.3 volumes of 3M KOH/3M KHCO3. […] Renal excretion of araH following i.v. administration of 30.1 or ara-AMP was determined as described in Example Q.

[8] = Chemical stability in isotonic saline and phosphate buffer (Example A); type: physicochemical; conditions: room temperature
Procedure: Methods: Aliquots of a 10 μg/mL solution of 30.1 in isotonic saline and in 100 mM potassium phosphate buffers at pH 3, 7, and 9 were sampled after 1, 2, 5, and 7 days of incubation at room temperature and analyzed by HPLC. A Beckman Ultrasphere C8 column (4.6×150 mm) was employed and eluted with a gradient from 0.1% v/v trifluoroacetic acid to 80% methanol at a flow rate of 1.0 mL/min. Detection was at 254 nm. Using these conditions, the four isomers of 30.1 were readily separated and quantified. 1.3 was incubated at 100 μM in phosphate buffer at pH 7.4 and analyzed by HPLC as described in Example I following 1 hour of incubation at room temperature.
Thus, prodrugs of the invention are stable under a broad pH range.

[9] = system: isolated rat hepatocytes; assay: Generation of PMEApp in isolated rat hepatocytes (Example V); type: cell-based; conditions: Dose 250 μM; 4 h; triplicate
Procedure: Methods: Hepatocytes were prepared from fed rats and incubated as described in Example I. Test compounds were prepared in DMSO and-diluted to 250 μM in the cell suspensions. Reactions were performed in triplicate. After 4 hours of incubation, aliquots of the suspension were removed and processed as described in Example I. Quantitation of PMEApp was performed by anion exchange HPLC also as described in Example I.

[10] = Hepatic PMEA-diphosphate generation following oral administration (Example W); type: in vivo, rat; conditions: oral gavage 30 mg/kg PMEA equiv.; 4 h; fasted rats; n = 3
Procedure: Four hours post administration, liver samples were obtained and processed as described in Example […] was analyzed by anion exchange HPLC as described for […] in Example O.

[11] = system: rat embryos in culture; conditions: cited from earlier work
[12] = intravenous; human patients; cited from earlier work

SMILES: CC(C)Cn1c(-c2ccc(P3(=O)OCC(CO)CO3)o2)nc2ccc(Cl)cc21 (centres unmarked) [Compound 7.1, 6-Chloro-1-isobutyl-2-{5-[2′-(hydroxymethyl)-propan-1′,3′-yl]phosphono-2-furanyl}benzimidazole]
% OBAV Prodrug [1]: 10.9%
conversion to parent compound [2]: converted to parent compound in the presence, but not in the absence of, NADP^+

SMILES: Nc1ncnc2c1ncn2[C@@H]1O[C@H](COP2(=O)OCCC(c3ccncc3)O2)[C@@H](O)[C@@H]1O (stereo partly drawn) [Compound 30.1, Adenine-9-beta-D-arabinofuranoside-5′-[1-(4-pyridyl)-1,3-propyl]monophosphate]
oral bioavailability ([3]; 3 mg/kg oral vs intravenous): 13.7%
oral bioavailability ([3]; 10 mg/kg oral vs intravenous): 17.4%
production of the metabolite araH after oral administration ([3]; oral administration): without production of the metabolite araH
safety of administration ([4]; 22 day period, doses up to 200 mg/kg/d): safely administered
araATP, nmoles/g liver ([4]; Dose 20 mg/kg/d): 6.6 ± 1.6 nmoles/g liver
araATP, nmoles/g liver ([4]; Dose 200 mg/kg/d): 23.1 ± 9 nmoles/g liver
activation to ara-AMP in liver cytosol [5]: does not result in activation
metabolism / degradation in fresh rat plasma ([6]; 37° C., 5-8 hours, HPLC): not degraded; also recorded: no evidence of metabolism
deamination by adenosine deaminase found in rat plasma ([6]; rat plasma): not susceptible
liver ara-ATP area under the curve relative to 10 mg/kg equivalent dose of ara-AMP ([7]; 30.1 3 mg/kg i.v., rat): 2.1 times higher
liver ara-ATP area under the curve relative to 10 mg/kg equivalent dose of ara-AMP ([7]; 30.1 10 mg/kg i.v., rat): 5.2 times higher
liver levels of araATP relative to araAMP (FIG. 1A) ([7]; i.v., 30.1 10 and 3 mg/kg vs araAMP 10 mg/kg): Significantly higher
ara-hypoxanthine (araH) in plasma / blood ([7]; i.v., rat): not detected; also recorded: no ara-hypoxanthine; also recorded: failed to produce detectable amounts; also recorded: no araH (a toxic metabolite) was detected
dose excreted in the form of ara-hypoxanthine in urine ([7]; i.v., rat): Nor was ara-hypoxanthine detected in urine
liver (araATP)/urine (araH) ratio in comparison with araAMP ([7]; rat): substantial shift
decomposition in saline or buffer ([8]; 10 μg/mL, isotonic saline and 100 mM potassium phosphate buffers pH 3, 7, 9, 7 days, HPLC): No decomposition
period for which stable ([8]; isotonic saline / 100 mM potassium phosphate buffer pH 3, 7, 9): at least seven

PMEApp [9]: 52.8 ± 1.5 nmol/g
Hepatic PMEApp (nmoles/g/tissue) [10]: 11.1 ± 1.8 nmoles/g/tissue
SMILES: Nc1ncnc2c1ncn2CCOCP1(=O)OCCC(c2cccc(Cl)c2)O1 (centres unmarked) [Compound 31.1, 9-{2-[1-(3-Chlorophenyl)1,3-propylphosphonomethoxy]ethyl}adenine]

SMILES: C=CC(=O)c1ccccc1 [Phenyl vinyl ketone]
teratogenic activity [11]: lacks teratogenic activity

SMILES: Nc1ncnc2c1ncn2[C@@H]1O[C@H](COP(=O)(O)O)[C@@H](O)[C@@H]1O [araAMP, reference compound]
araATP, nmoles/g liver ([4]; Dose 20 mg/kg/d): 2.5 ± 0.2 nmoles/g liver
araATP, nmoles/g liver ([4]; Dose 200 mg/kg/d): 19.1 ± 4.0 nmoles/g liver
ara-AMP in plasma [12]: not detected in plasma
ara-hypoxanthine (araH) in plasma / blood ([7]; i.v., rat, listed as AraAMP): rapidly and nearly completely converted to araH
ara-hypoxanthine (araH) in plasma / blood ([7]; i.v., rat, listed as ara-AMP): μmolar levels
dose excreted in the form of ara-hypoxanthine in urine ([7]; i.v., rat): 19.2%
plasma half-life relative to 30.1 ([7]; rat, compound not detectable in plasma): considerably shorter

Reference: patent US7351399B2, “Prodrugs for phosphorus-containing compounds” (Metabasis Therapeutics, Inc., priority 1998, dated 2008)
